Where two headings read alike, the source gives them in different places.

The experiment addresses T1, PKC epsilon (Homo sapiens, UniProt Q02156).
T1 construct: purchased Invitrogen P2282
T1 sequence (Q02156 1-737): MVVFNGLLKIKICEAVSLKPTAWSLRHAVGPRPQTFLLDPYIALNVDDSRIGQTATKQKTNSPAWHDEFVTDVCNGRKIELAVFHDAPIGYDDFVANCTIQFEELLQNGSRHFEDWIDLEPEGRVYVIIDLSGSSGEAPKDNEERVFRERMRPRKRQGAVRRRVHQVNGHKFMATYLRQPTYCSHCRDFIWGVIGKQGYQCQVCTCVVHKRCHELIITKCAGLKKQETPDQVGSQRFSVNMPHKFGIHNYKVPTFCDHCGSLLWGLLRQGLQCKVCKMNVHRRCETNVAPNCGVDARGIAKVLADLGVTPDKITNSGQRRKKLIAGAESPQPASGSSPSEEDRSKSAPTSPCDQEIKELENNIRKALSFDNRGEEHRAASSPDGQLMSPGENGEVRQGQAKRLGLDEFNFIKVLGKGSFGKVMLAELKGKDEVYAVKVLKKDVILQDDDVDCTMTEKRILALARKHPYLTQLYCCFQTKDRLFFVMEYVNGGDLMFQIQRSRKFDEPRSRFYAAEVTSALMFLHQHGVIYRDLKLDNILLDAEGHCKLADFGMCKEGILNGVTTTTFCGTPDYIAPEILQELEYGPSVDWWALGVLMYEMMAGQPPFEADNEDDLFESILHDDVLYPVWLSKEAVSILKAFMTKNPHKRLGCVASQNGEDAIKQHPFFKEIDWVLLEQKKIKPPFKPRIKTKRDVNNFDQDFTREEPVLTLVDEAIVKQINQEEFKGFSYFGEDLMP
As to the kind of experiment: Biochemical assay for PKC epsilon (fluorescence polarization, Protein Kinase C Assay Kit, Red). Conditions: read-out: IC50 μM PKCε. The procedure:
The compounds were tested for inhibition of PKC epsilon.
The inhibition assays were performed with a fluorescence polarization (FP) assay using the commercially available Protein Kinase C Assay Kit, Red, from Invitrogen (Product ID. No. P2941), essentially in accordance with the protocol supplied by the manufacturer. […] The isozyme PKC epsilon was also obtained from Invitrogen (Product ID No. P2282).
Staurosporine was used as a positive control (2 μM).
To perform the assay, 2 μl of a solution of the compound to be tested in DMSO (at each concentration) was added to 6 μl of a solution of the enzyme in 10 mM HEPES, 5 mM dithiotreitol, 0.1% Triton X-100, pH 7.4. The final concentration of the enzymes was 10 ng/ml.
After incubating for 30 minutes at room temperature, 4 μl of a mixture of ATP and the protein substrate in 60 mM HEPES (pH7.4), 15 mM MgCl2, 0.3 mM CaCl2, 0.06% NP40 was added.
After incubating for 80 minutes at room temperature, 3 μl of a mix solution of 500 mM EDTA (stop solution) and the Rhodamine-based PKC Red Tracer (from the Protein Kinase C Assay Kit) in BGG/phosphate buffer (pH7.4) with 0.02% NaN3 and 0.1% Triton X-100 was added and 5 μl of a the Anti-Phosphoserine antibody (also from the Protein Kinase C Assay Kit) in BGG/phosphate buffer (pH7.4) with 0.02% NaN3.
The results were fitted to a curve using the XL-Fit algorithm and […] were calculated for each fitted curve, again using the XL-Fit algorithm.

[1] abbreviates: Table 2, compounds of Formula XIII.
[2] abbreviates: compounds of Formula XIV, Table 3.

`NC(CNC(=O)C1(c2ccc(F)cc2Cl)CCCC1)c1ccc(C(=O)Nc2ccncc2)cc1` (stereo not drawn) [Compound 342, 4-(1-Amino-2-{[1-(2-chloro-4-fluoro-phenyl)-cyclopentanecarbonyl]-amino}-ethyl)-N-pyridin-4-yl-benzamide]: the IC50 under setting [1] is less than 0.05 µM.

“4-[1-Amino-2-(6-fluoro- indan-1-ylcarbamoyl)-ethyl]- N-pyridin-4-yl-benzamide [Compound 362]”: under setting [2], the IC50 was in the range of 0.05 to 0.5 µM.

With `NC(CNC(=O)C1CCc2cc(Cl)ccc21)c1ccc(C(=O)Nc2ccncc2)cc1` (stereo not drawn) [Compound 352, 5-Chloro-indan-1-carboxylic acid {2-amino-2-[4-(pyridin-4-ylcarbamoyl)-phenyl]-ethyl}-amide], the IC50 under setting [1] is less than 0.05 µM.

Take `NC(CNC(=O)Cc1ccc(F)c(Cl)c1)c1ccc(C(=O)Nc2ccncc2)cc1` (stereo not drawn) [Compound 330, 4-{1-Amino-2-[2-(3-chloro-4-fluoro-phenyl)-acetylamino]-ethyl}-N-pyridin-4-yl-benzamide]: under setting [1], the IC50 is 0.05 to 0.5 µM.

In the case of `NC(CNC(=O)C1(c2cccc(F)c2)CCCC1)c1ccc(C(=O)Nc2ccncc2)cc1` (stereo not drawn) [Compound 341, 4-(1-Amino-2-{[1-(3-fluoro-phenyl)-cyclopentanecarbonyl]-amino}-ethyl)-N-pyridin-4-yl-benzamide], the IC50 under setting [1] fell in the range of 0.05 to 0.5 µM.

As for `NC(CNC(=O)C1(c2ccc(F)cc2)CCCC1)c1ccc(C(=O)Nc2ccncc2)cc1` (stereo not drawn) [Compound 336, 4-(1-Amino-2-{[1-(4-fluoro-phenyl)-cyclopentanecarbonyl]-amino}-ethyl)-N-pyridin-4-yl-benzamide], under setting [1], the IC50 is less than 0.05 µM.

On to `NC(CC(=O)NC1CCSc2ccccc21)c1ccc(C(=O)Nc2ccncc2)cc1` (stereo not drawn) [Compound 360, 4-[1-Amino-2-(thiochroman-4-ylcarbamoyl)-ethyl]-N-pyridin-4-yl-benzamide], for which, under setting [2], the IC50 lay in the range of 0.05 to 0.5 µM.

Turning to `NC(CNC(=O)C1CCCc2ccccc21)c1ccc(C(=O)Nc2ccncc2)cc1` (stereo not drawn) [Compound 350, 1,2,3,4-Tetrahydro-naphthalene-1-carboxylic acid {2-amino-2-[4-(pyridin-4-ylcarbamoyl)-phenyl]-ethyl}-amide], the IC50 under setting [1] was 0.05 to 0.5 µM.

Turning to `NC(CNC(=O)Cc1ccc(F)cc1Cl)c1ccc(C(=O)Nc2ccncc2)cc1` (stereo not drawn) [Compound 332, 4-{1-Amino-2-[2-(2-chloro-4-fluoro-phenyl)-acetylamino]-ethyl}-N-pyridin-4-yl-benzamide], the IC50 under setting [1] fell in the range of 0.05 to 0.5 µM.

As for `NC(CC(=O)NC(c1ccc(Cl)cc1)C1CC1)c1ccc(C(=O)Nc2ccncc2)cc1` (stereo not drawn) [Compound 368, 4-(1-Amino-2-{[(4-chloro-phenyl)-cyclopropyl-methyl]-carbamoyl}-ethyl)-N-pyridin-4-yl-benzamide], under setting [2], the IC50 is 0.5 to 5 µM.

For the molecule `NC(CC(=O)NC1CCCc2sccc21)c1ccc(C(=O)Nc2ccncc2)cc1` (stereo not drawn) [Compound 367, 4-[1-Amino-2-(4,5,6,7-tetrahydro-benzo[b]thiophen-4-ylcarbamoyl)-ethyl]-N-pyridin-4-yl-benzamide], the concentration for half-maximal inhibition (IC50) under setting [2] was 0.05 to 0.5 µM.

As for `NC(CNC(=O)C1CCc2ccccc21)c1ccc(C(=O)Nc2ccncc2)cc1` (stereo not drawn) [Compound 351, Indan-1-carboxylic acid {2-amino-2-[4-(pyridin-4-ylcarbamoyl)-phenyl]-ethyl}-amide], under setting [1], the half-maximal inhibitory concentration (IC50) is 0.05 to 0.5 µM.

As to `NC(CNC(=O)Cc1ccccc1)c1ccc(C(=O)Nc2ccncc2)cc1` (stereo not drawn) [Compound 328, 4-(1-Amino-2-phenylacetylamino-ethyl)-N-pyridin-4-yl-benzamide], the IC50 under setting [1] is 0.05 to 0.5 µM.

On to “4-(1-Amino-2-{[1-(4-fluoro-phenyl)- cyclohexanecarbonyl]-amino}-ethyl)- N-pyridin-4-yl-benzamide [Compound 343]”, for which the IC50 under setting [1] is less than 0.05 µM.

As to “4-(1-Amino-2-{[1-(4-chloro-phenyl)- cyclobutanecarbonyl]-amino}-ethyl)- N-pyridin-4-yl-benzamide [Compound 337]”, under setting [1], the IC50 fell in the range of 0.05 to 0.5 µM.

On to “4-(1-Amino-2-{[1-(4-fluoro-phenyl)- cyclobutanecarbonyl]-amino}-ethyl)- N-pyridin-4-yl-benzamide [Compound 338]”, for which the IC50 under setting [1] was less than 0.05 µM.

In the case of `CCC(CC)(C(=O)NCC(N)c1ccc(C(=O)Nc2ccncc2)cc1)c1ccccc1` (stereo not drawn) [Compound 334, 4-[1-Amino-2-(2-ethyl-2-phenyl-butyrylamino)-ethyl]-N-pyridin-4-yl-benzamide], the IC50 under setting [1] was less than 0.05 µM.

With `CC(C)(C(=O)NCC(N)c1ccc(C(=O)Nc2ccncc2)cc1)c1ccc(F)c(F)c1` (stereo not drawn) [Compound 376, 4-{1-Amino-2-[2-(3,4-difluoro-phenyl)-2-methyl-propionylamino]-ethyl}-N-pyridin-4-yl-benzamide], under setting [1], the IC50 was less than 0.05 µM.

Regarding `NC(CNC(=O)Cc1ccc(Cl)cc1F)c1ccc(C(=O)Nc2ccncc2)cc1` (stereo not drawn) [Compound 333, 4-{1-Amino-2-[2-(4-chloro-2-fluoro-phenyl)-acetylamino]-ethyl}-N-pyridin-4-yl-benzamide], under setting [1], the IC50 lay in the range of 0.05 to 0.5 µM.

On to “4-[1-Amino-2-(5-fluoro- indan-1-ylcarbamoyl)-ethyl]- N-pyridin-4-yl-benzamide [Compound 361]”, for which the IC50 under setting [2] fell in the range of 0.05 to 0.5 µM.

Regarding `NC(CNC(=O)Cc1cc(F)ccc1F)c1ccc(C(=O)Nc2ccncc2)cc1` (stereo not drawn) [Compound 331, 4-{1-Amino-2-[2-(2,5-difluoro-phenyl)-acetylamino]-ethyl}-N-pyridin-4-yl-benzamide], the IC50 under setting [1] lay within 0.5 to 5 µM.

Take `NC(CNC(=O)Cc1ccc(Cl)c(Cl)c1)c1ccc(C(=O)Nc2ccncc2)cc1` (stereo not drawn) [Compound 329, 4-{1-Amino-2-[2-(3,4-dichloro-phenyl)-acetylamino]-ethyl}-N-pyridin-4-yl-benzamide]: under setting [1], the IC50 lay within 0.05 to 0.5 µM.

As to `NC(CC(=O)NC(c1ccc(F)cc1)C1CCC1)c1ccc(C(=O)Nc2ccncc2)cc1` (stereo not drawn) [Compound 369, 4-(1-Amino-2-{[cyclobutyl-(4-fluoro-phenyl)-methyl]-carbamoyl}-ethyl)-N-pyridin-4-yl-benzamide], the IC50 under setting [2] is 0.05 to 0.5 µM.

Turning to `NC(CNC(=O)C1CCc2ccc(F)cc21)c1ccc(C(=O)Nc2ccncc2)cc1` (stereo not drawn) [Compound 354, 6-Fluoro-indan-1-carboxylic acid {2-amino-2-[4-(pyridin-4-ylcarbamoyl)-phenyl]-ethyl}-amide], the 50% inhibitory concentration (IC50) under setting [1] was 0.05 to 0.5 µM.

On to `NC(CC(=O)NC1COc2ccccc21)c1ccc(C(=O)Nc2ccncc2)cc1` (stereo not drawn) [Compound 366, 4-[1-Amino-2-(2,3-dihydro-benzofuran-3-ylcarbamoyl)-ethyl]-N-pyridin-4-yl-benzamide], for which the IC50 under setting [2] is 0.05 to 0.5 µM.

Regarding `NC(CC(=O)NC1CCOc2ccccc21)c1ccc(C(=O)Nc2ccncc2)cc1` (stereo not drawn) [Compound 359, 4-[1-Amino-2-(chroman-4-ylcarbamoyl)-ethyl]-N-pyridin-4-yl-benzamide], the IC50 under setting [2] lay in the range of 0.05 to 0.5 µM.

Turning to “7-Fluoro-indan-1-carboxylic acid {2- amino-2-[4-(pyridin-4-ylcarbamoyl)- phenyl]-ethyl}-amide [Compound 353]”, the IC50 under setting [1] is 0.05 to 0.5 µM.

(Values after patent publication US20100168102A9, “Amide Derivatives as Kinase Inhibitors” (Devgen NV, priority 2005, published 2010).)
